The numbers were not newly measured in patent publication US20070213390A1, “HMGCoA reductase inhibitor-angiotensin converting enzyme inhibitor compounds” (pSivida Inc., priority 2005, published 2007), which cites them from elsewhere.

The target in the series is T1, HMGR (HMGCoA reductase) (Homo sapiens, UniProt P04035).
T1 sequence (P04035 426-888 limits assumed): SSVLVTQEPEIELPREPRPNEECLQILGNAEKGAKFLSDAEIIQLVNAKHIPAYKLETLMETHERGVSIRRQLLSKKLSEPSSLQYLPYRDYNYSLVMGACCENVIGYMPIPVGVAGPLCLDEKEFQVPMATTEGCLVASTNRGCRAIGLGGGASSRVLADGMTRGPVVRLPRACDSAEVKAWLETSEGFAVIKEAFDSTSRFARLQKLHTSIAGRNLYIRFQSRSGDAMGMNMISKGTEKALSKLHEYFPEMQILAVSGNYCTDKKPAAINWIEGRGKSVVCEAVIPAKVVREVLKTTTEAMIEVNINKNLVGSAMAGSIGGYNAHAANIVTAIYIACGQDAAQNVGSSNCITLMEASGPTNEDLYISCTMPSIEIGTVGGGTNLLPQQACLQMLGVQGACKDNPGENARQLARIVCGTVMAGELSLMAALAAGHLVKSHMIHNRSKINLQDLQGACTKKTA
The note with it: substrate of HMGR; read-out: Michaelis constant, Km, for HMG-CoA.

As a reminder, the Km is the substrate concentration at which the rate is half of its maximum. As to `CC(O)(CC(=O)O)CC(=O)SCCNC(=O)CCNC(=O)[C@H](O)C(C)(C)COP(=O)(O)OP(=O)(O)OC[C@H]1O[C@@H](n2cnc3c(N)ncnc32)[C@H](O)[C@@H]1OP(=O)(O)O` (stereo partly shown) [HMG-CoA, 3-hydroxy-3-methylglutaryl CoA], the Km is 4 µM.
